From publication PMC10025185, “A continuous in silico learning strategy to identify safety liabilities in compounds used in the leather and textile industry” (Archives of Toxicology, 2023)
Where two headings read alike, the source gives them in different places.

How the values were obtained:
[1] = tested on: zebrafish embryos
Description: (§1) Zebrafish embryos obtained and maintained as described previously for toxicity determination were used to determine (I) terato-carcinogenesis assayed as previously informed (Selderslaghs et al. [2009], [2012]) with modifications. In brief, embryos were incubated for 0 hpf up to 120 hpf in the presence and absence of tested compounds. Each condition was assayed in triplicate with 12 embryos per condition per replicate. The appearance of selected characteristics and malformations with respect to normal development were quantified for the eyes, otoliths, heart, circulation, hatching, skeletal deformities, and body position. For each concentration tested, we assessed the mortality and the presence of malformations at 24, 48, 72, 96, and 120 hpf using a light microscope. When possible, the lethal effects (LC50) and terato-carcinogenic effects (EC50) were determined using the ToxRat software. Based on these values, a teratogenic index (TI) was calculated as LC50/EC50. Based on previous studies, we considered a compound to be a teratogen when TI > 2 at 120 hpf. When no TI could be calculated due to no malformations induction to a degree extensive enough to calculate the EC50 in the presence of high toxicity, the compound was considered a non-teratogen. (II) Neurotoxicity was assayed by evaluating the locomotor activity in embryos exposed to the tested compounds from 0 to 120 hpf using Zebrabox and Zebralab (ViewPoint). We tested three concentrations (24 embryos per concentration) below the NOEC to avoid readily toxic concentrations. After incubation with tested compounds for 120 hs in 96-well plates, the activity of larvae in response to transitions from dark to light was evaluated. The protocol involved an initial 10 min acclimation period inside the Zebrabox, followed by three cycles of light–dark of 10 min each. After the end of each cycle, the integrated activity of each embryo was registered. Statistical analysis was done using ANOVA, followed by the Tukey post hoc test. Differences were considered significant when p < 0.05. Dead embryos were not considered in the analysis. (III) The endocrine-disrupting effect in zebrafish embryos was assayed by real-time PCR as previously reported (Jarque et al. [2019]) with modifications. In brief, 0 hpf embryos (12 embryos per condition in triplicate) were incubated with selected compounds for up to 120 hpf. After incubation, treated (embryos incubated at the concentration right below the NOEC) and control embryos were collected in RNA later and kept at − 20°C until use. RNA was extracted from the samples using the RNeasy Mini Kit (QIAGEN) and was followed by cDNA synthesis using random primers and the AffinityScript Multi Temperature cDNA Synthesis Kit (Agilent Technologies). Finally, real-time PCR was performed for eight target genes to obtain data on the estrogenic (cytochrome P450 family 19 subfamily A member 1: cyp19a1b, and vitellogenin: vtg1), androgenic (cytochrome P450 family 2 subfamily W member 1: cyp2k22, and cytosolic sulphotransferase 3: sult2st3), and thyroid hormone (thyroid peroxidase: tpo, thyroid hormone receptor alpha: tra, transthyretin: ttr, and iodothyronine deiodinase 2: dio2) effect of the tested compounds. Significant changes in gene expression between controls and treated samples were considered as a potential endocrine-disrupting effect.

[2] = tested on: zebrafish embryos; remark: listed apart in the source
Description: In REACH, most of the mammalian tests for chemical safety assessment are related to reproductive toxicity (ECHA [2020]; Rovida and Hartung [2009]; Sellick [2011]) and consider complex molecular and cellular mechanisms determined in long-term experiments with very low throughput. To avoid the use of animals and to assay reproductive toxicity in a relevant 'non-animal' model adhering to the 3Rs rule, we used zebrafish embryos up to 120 hpf. Up to this developmental stage, the embryos are not considered animals according to European legislation (Sellick [2011]). When they reach the stage of independent feeding, zebrafish embryos become subject to regulations for animal experimentation. We performed a set of previously described experiments to cover a wide range of potential reprotoxic effects, including terato-carcinogenesis, developmental neurotoxicity, and endocrine disruption.
as §1, with “Technologies).” for “Technologies). Finally, real-time PCR was performed for eight target genes to obtain data on the estrogenic (cytochrome P450 family 19 subfamily A member 1: cyp19a1b, and vitellogenin: vtg1), androgenic (cytochrome P450 family 2 subfamily W member 1: cyp2k22, and cytosolic sulphotransferase 3: sult2st3), and thyroid hormone (thyroid peroxidase: tpo, thyroid hormone receptor alpha: tra, transthyretin: ttr, and iodothyronine deiodinase 2: dio2) effect of the tested compounds. Significant changes in gene expression between controls and treated samples were considered as a potential endocrine-disrupting effect.”

[3] = real-time PCR, zebrafish embryos
[4] = second of two columns headed Neurotoxic
[5] = 0 to 120 hpf, teratogen when TI > 2

Compound	Reprotoxicity (R) Neurotoxic ([1]; in vivo)	induction of cytochrome P450 2 K [1, 3]	induction of vitellogenin [1, 3]	Reprotoxicity (R) Teratogen ([2]; in vivo)	Reprotoxicity (R) Endocrine disruptor ([1]; in vivo)	Reprotoxicity (R) Experimental conclusion ([2]; in vivo)	Reprotoxicity (R) Neurotoxic [1, 4]	Reprotoxicity (R) Teratogen [2, 5]	Reprotoxicity (R) Endocrine disruptor ([1]; gene expression, 120 hpf, concentration right below NOEC)	Reprotoxicity (R) Experimental conclusion ([2]; positive in any of the three assays)
CCCCC(CC)CN (stereo not shown) [2-Ethylhexylamine]	No	induced	induced	No						
CNC(=O)c1cc(Cl)ccn1.Cl [4-Chloro-N-methylpyridine-2-carboxamide hydrochloride (1:1)]	No			No	No	No				
CCN(CC)c1ccc(N=Nc2c(Cl)cc([N+](=O)[O-])cc2[N+](=O)[O-])c(NC(C)=O)c1 [N-[2-[(2-chloro-4,6-dinitrophenyl)azo]-5-(diethylamino)phenyl]acetamide]		induced					No	No		
O=C(OCCc1ccccc1)c1ccccc1 [Phenethyl benzoate]	No			No	No	No				
Reaction mass of cis-4-(isopropyl) cyclohexanemethanol and trans-4-(isopropyl) cyclohexanemethanol							No	No	No	No
